Data on 2 molecules can be found in patent publication US20220112237A1, “AMINO ACID COMPOSITION HAVING CO-AMORPHOUS STRUCTURE” (AJINOMOTO CO., INC., priority 2019, published 2022).

Series [1] in a line: Test to confirm the dissolved amount (Tyr concentration of supernatant by HPLC). It is filed as physicochemical. Particulars: 130 mg in 100 mL water, pH 6.5-7.5, 25° C., stirred, after 24 hours. On the procedure: […] After the powder was dissolved completely, the pH was adjusted using 5 mol/L hydrochloric acid to be within the range of 6.5-7.5. Bottles A-D were immersed in a water bath (“NCG-3300”, manufactured by Tokyo Rikakikai Co., Ltd.) at 25° C., and bottles A and C were stirred by the magnetic stirrer, and bottles B and D were allowed to stand without stirring. After 2 hours, 2 mL was sampled from each bottle, and filtered using a 0.45 μm filter (“Millex”, Merck). The filtered sample was diluted 50 times, and the Tyr concentration of the supernatant was determined using high-performance liquid chromatography (HPLC) (“1100 Series”, manufactured by Agilent).
The above process was conducted again after 24 hours, 48 hours, and 333 hours. In the drawing, ◯, Δ, ● and ▴ represent A (stirred, 138 mg), B (allowed to stand, 138 mg), C (stirred, 220 mg) and D (allowed to stand, 220 mg), respectively. […]
After 5 minutes, 10 minutes, 30 minutes, 1 hour, 2 hours, 24 hours, and 168 hours from the start of stirring, 2 mL was sampled from each sample bottle, and filtered using the 0.45 […] filter (“Millex”, Merck). The filtered sample was diluted 50 times, and the Tyr concentration of the supernatant was determined using the high-performance liquid chromatography (HPLC) (“1100 Series”, manufactured by Agilent).

Series [2] is described as follows: Confirmation of formation of amorphous product by powder X-ray diffraction. Particulars: Cys2 with Arg or Cys2 alone, ball mill as Example 1, 30° C., FIG. 6. It is filed as physicochemical. On the procedure:
The solid powder obtained in (1) was measured by the powder X-ray diffraction apparatus (“Empyrean”, manufactured by Malvern Panalytical), and the powder X-ray diffraction patterns of the solid were obtained. In the drawing, line a represents the pattern of the mixture at time zero, line b represents time zero plus 4 hours, and line c represents time zero plus 12 hours. As a result, a well-defined peak characteristic of crystal structure was not found. From this, it was confirmed that the solid obtained in (1) was amorphous.
The solid obtained in (1) was measured by the same powder X-ray diffraction apparatus as Example 1, and the powder X-ray diffraction patterns of the solid are shown in FIG. 4.
The solid obtained in (1) was measured by the same powder X-ray diffraction apparatus as Example 1, and the powder X-ray diffraction patterns were obtained. […]
The solid obtained in (1) was measured by the same powder X-ray diffraction apparatus as Example 1, and the powder X-ray diffraction patterns of the solid are shown in FIG. 7.
The solid obtained in (1) was measured by the same powder X-ray diffraction apparatus as Example 1, and the powder X-ray diffraction patterns of the solid are shown in FIG. 8.
The solid obtained in (1) was measured by the same powder X-ray diffraction apparatus as Example 1, and the powder X-ray diffraction patterns of the solid are shown in FIG. 9. […]

`N[C@@H](Cc1ccc(O)cc1)C(=O)O` [Tyr crystal, tyrosine]: the “Tyr concentration of the supernatant” value in series [1] turned out to be 430 mg/L.
As to `N[C@@H](CSSC[C@H](N)C(=O)O)C(=O)O` [compound 7, Cystine], the “Formation of amorphous product after pulverization” value in series [2] was “the crystal property remained”.
